Laboratory results: ChEMBL document CHEMBL5724914, “Linking interpersonal differences in gut microbiota composition and drug biotransformation activity” (2024)

Tests used:
[1] = The drug is tested on Z-027 corresponding to metagenome with ENA study accession number: PRJEB37062 and ENA sample accession number: ERS12561826 for biotransformation under anaerobic condition. The drug concentrations were measured over 9 timepoints collected between 0 and 24 hours of incubation by liquid-chromatography-coupled mass spectrometry (LC–MS); conditions: 2 µM
[2] = The drug is tested on Z-001 corresponding to mouse gut metagenome with ENA study accession number: PRJEB37062 and ENA sample accession number: ERS12561801 for biotransformation under anaerobic condition. The drug concentrations were measured over 9 timepoints collected between 0 and 24 hours of incubation by liquid-chromatography-coupled mass spectrometry (LC–MS); conditions: 2 µM
[3] = The drug is tested on WLS-098 corresponding to human gut metagenome with ENA study accession number: PRJEB37062 and ENA sample accession number: ERS12561754 for biotransformation under anaerobic condition. The drug concentrations were measured over 9 timepoints collected between 0 and 24 hours of incubation by liquid-chromatography-coupled mass spectrometry (LC–MS); conditions: 2 µM
[4] = The drug is tested on WLS-090 corresponding to human gut metagenome with ENA study accession number: PRJEB37062 and ENA sample accession number: ERS12561753 for biotransformation under anaerobic condition. The drug concentrations were measured over 9 timepoints collected between 0 and 24 hours of incubation by liquid-chromatography-coupled mass spectrometry (LC–MS); conditions: 2 µM
[5] = The drug is tested on WLS-073 corresponding to human gut metagenome with ENA study accession number: PRJEB37062 and ENA sample accession number: ERS12561749 for biotransformation under anaerobic condition. The drug concentrations were measured over 9 timepoints collected between 0 and 24 hours of incubation by liquid-chromatography-coupled mass spectrometry (LC–MS); conditions: 2 µM
[6] = The drug is tested on WLS-007 corresponding to human gut metagenome with ENA study accession number: PRJEB37062 and ENA sample accession number: ERS12561742 for biotransformation under anaerobic condition. The drug concentrations were measured over 9 timepoints collected between 0 and 24 hours of incubation by liquid-chromatography-coupled mass spectrometry (LC–MS); conditions: 2 µM
[7] = human gut metagenome, 24 h, 2 µM
[8] = human gut metagenome, 24 h, 2 µM; remark: listed apart in the source
[9] = human gut metagenome, 24 h, 2 µM; remark: listed apart in the source
[10] = human gut metagenome, 24 h, 2 µM; remark: listed apart in the source
[11] = human gut metagenome, 24 h, 2 µM; remark: listed apart in the source
[12] = human gut metagenome, 24 h, 2 µM; remark: listed apart in the source
[13] = human gut metagenome, 24 h, 2 µM; remark: listed apart in the source
[14] = The drug is tested on WLS-052 corresponding to human gut metagenome with ENA study accession number: PRJEB37062 and ENA sample accession number: ERS12561747 for biotransformation under anaerobic condition. The drug concentrations were measured over 9 timepoints collected between 0 and 24 hours of incubation by liquid-chromatography-coupled mass spectrometry (LC–MS); conditions: 2 µM
[15] = The drug is tested on WLS-027 corresponding to human gut metagenome with ENA study accession number: PRJEB37062 and ENA sample accession number: ERS12561744 for biotransformation under anaerobic condition. The drug concentrations were measured over 9 timepoints collected between 0 and 24 hours of incubation by liquid-chromatography-coupled mass spectrometry (LC–MS); conditions: 2 µM
[16] = human gut metagenome, 24 h, 2 µM; remark: listed apart in the source
[17] = The drug is tested on Z-023 corresponding to metagenome with ENA study accession number: PRJEB37062 and ENA sample accession number: ERS12561822 for biotransformation under anaerobic condition. The drug concentrations were measured over 9 timepoints collected between 0 and 24 hours of incubation by liquid-chromatography-coupled mass spectrometry (LC–MS); conditions: 2 µM
[18] = The drug is tested on Z-011 corresponding to mouse gut metagenome with ENA study accession number: PRJEB37062 and ENA sample accession number: ERS12561811 for biotransformation under anaerobic condition. The drug concentrations were measured over 9 timepoints collected between 0 and 24 hours of incubation by liquid-chromatography-coupled mass spectrometry (LC–MS); conditions: 2 µM
Note: call rule not given here.

| Structure (SMILES) | Bacterial Biotransformation [1] | Bacterial Biotransformation [2] | Bacterial Biotransformation [3] | Bacterial Biotransformation [4] | Bacterial Biotransformation [5] | Bacterial Biotransformation [6] | Bacterial Biotransformation [7] | Bacterial Biotransformation [8] | Bacterial Biotransformation [9] | Bacterial Biotransformation [10] | Bacterial Biotransformation [11] | Bacterial Biotransformation [12] | Bacterial Biotransformation [13] | Bacterial Biotransformation [14] | Bacterial Biotransformation [15] | Bacterial Biotransformation [16] | Bacterial Biotransformation [17] | Bacterial Biotransformation [18] |
| --- | --- | --- | --- | --- | --- | --- | --- | --- | --- | --- | --- | --- | --- | --- | --- | --- | --- | --- |
| CN1CCc2cccc3c2[C@H]1Cc1ccc(O)c(O)c1-3 [APOMORPHINE] | Compound NOT metabolized | Compound NOT metabolized | Compound NOT metabolized | Compound NOT metabolized | Compound NOT metabolized | Compound NOT metabolized | Compound NOT metabolized | Compound NOT metabolized | Compound NOT metabolized | Compound NOT metabolized | Compound NOT metabolized | Compound NOT metabolized | Compound NOT metabolized |  |  |  |  |  |
| OC(CCN1CCCCC1)(c1ccccc1)C1CC2C=CC1C2 (centres undefined) [BIPERIDEN] |  |  | Compound metabolized | Compound metabolized | Compound NOT metabolized | Compound NOT metabolized | Compound NOT metabolized | Compound NOT metabolized | Compound NOT metabolized | Compound NOT metabolized | Compound NOT metabolized | Compound metabolized | Compound NOT metabolized | Compound NOT metabolized | Compound NOT metabolized | Compound NOT metabolized |  |  |
| CC(=O)O[C@]1(C(C)=O)CC[C@H]2[C@@H]3C=C(Cl)C4=CC(=O)[C@@H]5C[C@@H]5[C@]4(C)[C@H]3CC[C@@]21C [CYPROTERONE ACETATE] |  | Compound metabolized | Compound metabolized | Compound metabolized | Compound metabolized | Compound metabolized | Compound metabolized | Compound metabolized | Compound metabolized | Compound metabolized | Compound metabolized | Compound metabolized | Compound metabolized | Compound metabolized | Compound metabolized | Compound metabolized | Compound metabolized | Compound metabolized |
| CN1C[C@H](C(=O)N[C@]2(C)O[C@@]3(O)[C@@H]4CCCN4C(=O)[C@H](Cc4ccccc4)N3C2=O)C=C2c3cccc4[nH]cc(c34)C[C@H]21.CN1C[C@H](C(=O)N[C@]2(C)O[C@@]3(O)[C@@H]4CCCN4C(=O)[C@H](Cc4ccccc4)N3C2=O)C=C2c3cccc4[nH]cc(c34)C[C@H]21.O=C(O)C(O)C(O)C(=O)O [ERGOTAMINE TARTRATE] |  |  | Compound metabolized | Compound metabolized | Compound NOT metabolized | Compound metabolized | Compound metabolized | Compound metabolized | Compound metabolized |  | Compound metabolized | Compound metabolized | Compound NOT metabolized | Compound metabolized | Compound metabolized | Compound NOT metabolized |  |  |
| COC(=O)C1=C(C)NC(C)=C(C(=O)OC(C)C)C1c1cccc2nonc12 (centres undefined) [ISRADIPINE] |  | Compound NOT metabolized | Compound metabolized | Compound metabolized | Compound NOT metabolized | Compound metabolized | Compound metabolized | Compound metabolized | Compound NOT metabolized | Compound metabolized | Compound metabolized | Compound metabolized | Compound NOT metabolized | Compound metabolized | Compound metabolized | Compound metabolized |  |  |
| CN(C(=O)CN(CCO)CC(=O)N(C)C(C)(C)Cc1ccccc1)C(C)(C)Cc1ccccc1 [OXETHAZAINE] |  |  | Compound metabolized | Compound metabolized | Compound metabolized | Compound NOT metabolized | Compound metabolized | Compound metabolized | Compound NOT metabolized | Compound metabolized | Compound metabolized | Compound metabolized | Compound NOT metabolized | Compound metabolized | Compound metabolized | Compound metabolized |  |  |
| CN1CCN(CC/C=C2/c3ccccc3Sc3ccc(S(=O)(=O)N(C)C)cc32)CC1 [THIOTHIXENE] |  |  | Compound metabolized | Compound metabolized | Compound metabolized | Compound NOT metabolized | Compound metabolized | Compound metabolized | Compound metabolized | Compound metabolized | Compound metabolized | Compound metabolized | Compound NOT metabolized | Compound metabolized | Compound metabolized | Compound metabolized |  |  |
| CS(=O)(=O)O.O.O.O.O=C1Cc2cc(CCN3CCN(c4nsc5ccccc45)CC3)c(Cl)cc2N1 [ZIPRASIDONE MESYLATE] |  |  | Compound metabolized | Compound metabolized | Compound metabolized | Compound NOT metabolized | Compound NOT metabolized | Compound NOT metabolized | Compound NOT metabolized | Compound metabolized | Compound metabolized | Compound metabolized | Compound NOT metabolized | Compound metabolized | Compound metabolized | Compound NOT metabolized |  |  |
